According to PubChem BioAssay AID256 (DTP/NCI, 2004):
Where “and” joins values, the source holds several entries; their conditions need not be identical. Identical values can stand only once. Toxic doses and inconclusive results are not listed. Rule for the calls: active = survival T/C of 150% or more; inactive = T/C below 125% in these data.

System: CD2F1 mice, L1210 leukemia ip, survival T/C
Test: NCI In Vivo Anticancer Drug Screen. Data for tumor model L1210 Leukemia (intraperitoneal) in CD2F1 (CDF1) mice
Conditions: higher = longer survival
Procedure, shortened: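 Read-out first: treated-group measurement over vehicle-control measurement, expressed as a ratio. Animals bore a transplanted tumor line and were dosed with compound or vehicle.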

[1] = endpoint: mean survival time, dose: 200.0 mg/kg/injection, schedule: Q01DX009 (ip), vehicle: other
[2] = endpoint: mean survival time, dose: 6.25 mg/kg/injection, schedule: Q04DX003 (ip), vehicle: saline with Tween-80
[3] = endpoint: mean survival time, dose: 12.5 mg/kg/injection, schedule: Q04DX003 (ip), vehicle: saline with Tween-80
[4] = endpoint: mean survival time, dose: 25.0 mg/kg/injection, schedule: Q04DX003 (ip), vehicle: saline with Tween-80
[5] = endpoint: mean survival time, dose: 100.0 mg/kg/injection, schedule: Q01DX009 (ip), vehicle: saline with Tween-80
[6] = endpoint: mean survival time, dose: 200.0 mg/kg/injection, schedule: Q01DX009 (ip), vehicle: saline with Tween-80
[7] = endpoint: mean survival time, dose: 100.0 mg/kg/injection, schedule: Q01DX001 (ip), vehicle: saline with Tween-80
[8] = endpoint: mean survival time, dose: 200.0 mg/kg/injection, schedule: Q01DX001 (ip), vehicle: saline with Tween-80
[9] = endpoint: mean survival time, dose: 400.0 mg/kg/injection, schedule: Q01DX001 (ip), vehicle: saline with Tween-80
[10] = endpoint: mean survival time, dose: 100.0 mg/kg/injection, schedule: Q04DX003 (ip), vehicle: saline with Tween-80
[11] = endpoint: mean survival time, dose: 200.0 mg/kg/injection, schedule: Q04DX003 (ip), vehicle: saline with Tween-80
[12] = endpoint: mean survival time, dose: 400.0 mg/kg/injection, schedule: Q01DX009 (ip), vehicle: saline with Tween-80
[13] = endpoint: mean survival time, dose: 400.0 mg/kg/injection, schedule: Q04DX003 (ip), vehicle: saline with Tween-80

Measured: T/C

CC1C(c2ccccc2)OP(=O)(N(CCCl)CCCl)N1C (stereo not drawn)
inactive: endpoint: mean survival time, dose: 1.56 mg/kg/injection, schedule: Q01DX009 (ip), vehicle: other 110 % of control | endpoint: mean survival time, dose: 3.13 mg/kg/injection, schedule: Q01DX009 (ip), vehicle: other 101 % of control | endpoint: mean survival time, dose: 6.25 mg/kg/injection, schedule: Q01DX009 (ip), vehicle: other 98 % of control | endpoint: mean survival time, dose: 12.5 mg/kg/injection, schedule: Q01DX009 (ip), vehicle: other 103 % of control and 95 % of control and 97 % of control | endpoint: mean survival time, dose: 12.5 mg/kg/injection, schedule: Q01DX009 (ip), vehicle: water 92 % of control | endpoint: mean survival time, dose: 25.0 mg/kg/injection, schedule: Q01DX001 (ip), vehicle: other 97 % of control and 100 % of control | endpoint: mean survival time, dose: 25.0 mg/kg/injection, schedule: Q01DX009 (ip), vehicle: other 104 % of control and 95 % of control | endpoint: mean survival time, dose: 25.0 mg/kg/injection, schedule: Q01DX009 (ip), vehicle: water 86 % of control | endpoint: mean survival time, dose: 31.3 mg/kg/injection, schedule: Q01DX001 (ip), vehicle: other 104 % of control [middle of 4 runs] | endpoint: mean survival time, dose: 50.0 mg/kg/injection, schedule: Q01DX001 (ip), vehicle: other 102 % of control and 92 % of control | endpoint: mean survival time, dose: 50.0 mg/kg/injection, schedule: Q01DX009 (ip), vehicle: other 95 % of control and 100 % of control | endpoint: mean survival time, dose: 50.0 mg/kg/injection, schedule: Q01DX009 (ip), vehicle: water 100 % of control | endpoint: mean survival time, dose: 62.5 mg/kg/injection, schedule: Q01DX001 (ip), vehicle: other 104 % of control and 103 % of control and 101 % of control | endpoint: mean survival time, dose: 100.0 mg/kg/injection, schedule: Q01DX001 (ip), vehicle: other 103 % of control and 97 % of control | endpoint: mean survival time, dose: 100.0 mg/kg/injection, schedule: Q01DX009 (ip), vehicle: other 97 % of control and 100 % of control | endpoint: mean survival time, dose: 100.0 mg/kg/injection, schedule: Q01DX009 (ip), vehicle: water 88 % of control | endpoint: mean survival time, dose: 125.0 mg/kg/injection, schedule: Q01DX001 (ip), vehicle: other 95 % of control and 101 % of control and 104 % of control | endpoint: mean survival time, dose: 200.0 mg/kg/injection, schedule: Q01DX001 (ip), vehicle: other 103 % of control and 108 % of control | [1] 95 % of control and 101 % of control | endpoint: mean survival time, dose: 250.0 mg/kg/injection, schedule: Q01DX001 (ip), vehicle: other 103 % of control and 98 % of control and 97 % of control | endpoint: mean survival time, dose: 500.0 mg/kg/injection, schedule: Q01DX001 (ip), vehicle: other 107 % of control and 103 % of control and 104 % of control

COc1ccccc1[As](=O)(O)CC(O)COc1ccccc1 (stereo not drawn)
inactive: [2] 103 % of control | [3] 104 % of control | [4] 113 % of control

O=C1C=CC(=O)N1c1ccc(Cl)cc1[N+](=O)[O-]
inactive: [2] 98 % of control | endpoint: mean survival time, dose: 12.5 mg/kg/injection, schedule: Q01DX009 (ip), vehicle: saline with Tween-80 97 % of control | [3] 101 % of control | endpoint: mean survival time, dose: 25.0 mg/kg/injection, schedule: Q01DX009 (ip), vehicle: saline with Tween-80 96 % of control | [4] 98 % of control

O=C(/C=C/c1ccccc1)N1CC2CCC(CC2)C1
inactive: endpoint: mean survival time, dose: 50.0 mg/kg/injection, schedule: Q01DX009 (ip), vehicle: saline with Tween-80 94 % of control | [5] 94 % of control | [6] 91 % of control

CC1(C)N=C(N)N=C(N)N1c1cccc(/C=C(\C#N)c2ccccc2)c1
inactive: endpoint: mean survival time, dose: 100.0 mg/kg/injection, schedule: Q04DX002 (ip), vehicle: Klucel (hydroxypropylcellulose) (HPC) 98 % of control | endpoint: mean survival time, dose: 200.0 mg/kg/injection, schedule: Q04DX002 (ip), vehicle: Klucel (hydroxypropylcellulose) (HPC) 95 % of control

CCOP(=O)(OCC)OCC1OC(n2cnc3c(N)ncnc32)C(O)C1O (stereo not drawn)
inactive: endpoint: median survival time, dose: 12.5 mg/kg/injection, schedule: Q01DX005 (ip), vehicle: distilled water + Tween-80 96 % of control | endpoint: median survival time, dose: 25.0 mg/kg/injection, schedule: Q01DX005 (ip), vehicle: distilled water + Tween-80 96 % of control | endpoint: median survival time, dose: 50.0 mg/kg/injection, schedule: Q01DX005 (ip), vehicle: distilled water + Tween-80 103 % of control | endpoint: median survival time, dose: 100.0 mg/kg/injection, schedule: Q01DX005 (ip), vehicle: distilled water + Tween-80 102 % of control | endpoint: median survival time, dose: 200.0 mg/kg/injection, schedule: Q01DX005 (ip), vehicle: distilled water + Tween-80 101 % of control

S=c1[nH]c2cc(Cl)c(Cl)cc2[nH]1
inactive: endpoint: mean survival time, dose: 100.0 mg/kg/injection, schedule: Q01DX001 (ip), vehicle: saline 100 % of control | endpoint: mean survival time, dose: 200.0 mg/kg/injection, schedule: Q01DX001 (ip), vehicle: saline 100 % of control | endpoint: mean survival time, dose: 400.0 mg/kg/injection, schedule: Q01DX001 (ip), vehicle: saline 102 % of control

NC(=O)N/N=C1\CC2C=CCC12 (stereo not drawn)
inactive: [5] 95 % of control | [6] 98 % of control

Cc1ccc(S(=O)(=O)OCC(O)C(O)C(O)C(O)CO[N+](=O)[O-])cc1 (stereo not drawn)
inactive: [7] 101 % of control | [8] 101 % of control | [9] 101 % of control

CCCCNC(C)(C)C(SS)c1cccs1 (stereo not drawn)
inactive: endpoint: mean survival time, dose: 66.0 mg/kg/injection, schedule: Q01DX009 (ip), vehicle: other 101 % of control | endpoint: mean survival time, dose: 150.0 mg/kg/injection, schedule: Q01DX009 (ip), vehicle: other 108 % of control | [1] 94 % of control | endpoint: mean survival time, dose: 400.0 mg/kg/injection, schedule: Q01DX009 (ip), vehicle: other 92 % of control

COc1cc2cc(c1Cl)N(C)C(=O)CC(OC(=O)CC(C)C)C1(C)OC1C(C)C1CC(O)(NC(=O)O1)C(OC)/C=C/C=C(C)C2 (stereo not drawn)
inactive: endpoint: mean survival time, dose: 3.8 micrograms/kg/injection, schedule: Q01DX009 (ip), vehicle: saline + alcohol 103 % of control | endpoint: mean survival time, dose: 7.5 micrograms/kg/injection, schedule: Q01DX009 (ip), vehicle: saline + alcohol 103 % of control | endpoint: mean survival time, dose: 15.0 micrograms/kg/injection, schedule: Q01DX009 (ip), vehicle: saline + alcohol 112 % of control | endpoint: mean survival time, dose: 30.0 micrograms/kg/injection, schedule: Q01DX009 (ip), vehicle: saline + alcohol 112 % of control | endpoint: mean survival time, dose: 60.0 micrograms/kg/injection, schedule: Q01DX009 (ip), vehicle: saline + alcohol 111 % of control

CC(=O)OC1COC(n2cnc(C#N)c2C#N)C(OC(C)=O)C1OC(C)=O (stereo not drawn)
inactive: endpoint: mean survival time, dose: 12.5 mg/kg/injection, schedule: Q01DX005 (ip), vehicle: distilled water + Tween-80 101 % of control and 98 % of control | endpoint: mean survival time, dose: 25.0 mg/kg/injection, schedule: Q01DX005 (ip), vehicle: distilled water + Tween-80 95 % of control and 103 % of control | endpoint: mean survival time, dose: 50.0 mg/kg/injection, schedule: Q01DX005 (ip), vehicle: distilled water + Tween-80 93 % of control and 101 % of control | endpoint: mean survival time, dose: 100.0 mg/kg/injection, schedule: Q01DX005 (ip), vehicle: distilled water + Tween-80 97 % of control | endpoint: mean survival time, dose: 200.0 mg/kg/injection, schedule: Q01DX005 (ip), vehicle: distilled water + Tween-80 93 % of control and 104 % of control

CC(O)C(O)C(O)C(/C=N\N=C(/N)[S-])=N/N=C(\N)[S-].[Pt+2] (stereo not drawn)
inactive: [7] 111 % of control | [5] 91 % of control | [10] 88 % of control | [8] 104 % of control | [6] 94 % of control | [11] 96 % of control | [9] 106 % of control | [12] 89 % of control | [13] 89 % of control

Cc1ccccc1N
inactive: [5] 102 % of control | [6] 107 % of control

COc1ccc(C(O)C(C)c2ccc([N+](=O)[O-])cc2)cc1 (stereo not drawn)
inactive: [7] 106 % of control | [5] 105 % of control | [8] 93 % of control | [6] 103 % of control | [9] 98 % of control | [12] 94 % of control

COc1cc(C)ccc1C1=CCCCCC1
inactive: endpoint: mean survival time, dose: 100.0 mg/kg/injection, schedule: Q04DX003 (ip), vehicle: saline 93 % of control | endpoint: mean survival time, dose: 200.0 mg/kg/injection, schedule: Q04DX003 (ip), vehicle: saline 93 % of control | endpoint: mean survival time, dose: 400.0 mg/kg/injection, schedule: Q04DX003 (ip), vehicle: saline 103 % of control

OCc1c(Cl)c(Cl)c(CO)c(Cl)c1Cl
inactive: [5] 95 % of control | [10] 102 % of control | [6] 90 % of control | [11] 100 % of control | [12] 94 % of control | [13] 96 % of control

COC(=O)CC(C)Cc1ccc(OC)c(OC)c1 (stereo not drawn)
inactive: endpoint: mean survival time, dose: 100.0 mg/kg/injection, schedule: Q01DX009 (ip), vehicle: saline 97 % of control | [10] 97 % of control | endpoint: mean survival time, dose: 200.0 mg/kg/injection, schedule: Q01DX009 (ip), vehicle: saline 95 % of control | [11] 100 % of control | endpoint: mean survival time, dose: 400.0 mg/kg/injection, schedule: Q01DX009 (ip), vehicle: saline 86 % of control | [13] 96 % of control
